# Reference: patent US11617762B2, “Compositions comprising sulfated polysaccharides” (SEANERGY DERMATOLOGY LTD., priority 2016, dated 2023)
# Key:
# [1] = system: TNFα secretion in RAW 264.7 cells; assay: LPS-induced TNFα secretion by RAW 264.7 macrophage cells (ELISA); format: cell-based; conditions: LPS 1 μg/ml, 24 hr
# Protocol: The potential for synergistic interaction was tested by assaying inflammatory mediator secretion by a macrophage cell line (RAW 264.7), following stimulation with lipopolysaccharide (LPS). […] RAW 264.7 monocyte macrophage cells (approximately 4×10^5/ml) were seeded in 24 well plates containing 800 microliters/well of complete growth medium (DMEM containing 2 mM glutamine, 100 U/ml penicillin and 100 μg/ml streptomycin and 10% fetal bovine serum). The cells were then incubated at 37 degrees Celsius with 5% carbon dioxide for 24 h. At the end of this period, growth medium supplemented with 1 μg/ml lipopolysaccharide (LPS) was added to the cells, together with the test substances (SPS, anti-inflammatory drugs and their combinations) and various controls), and the cells were then incubated for a further 24 hr. period under the same conditions as before. Following this incubation period, the conditioned medium was aspirated from the various test and control wells and centrifuged at 14,000 g for 5 minutes to remove particulate matter. The clear supernatants were then stored at −70 degrees Celsius prior to assaying the inflammatory mediatory content therein. The cytokine/mediator content in the thawed supernatants was assayed using standard ELISA kits for TNFα, IL-6 and PGE2 (BioLegend Inc., San Diego, Calif., USA). Method: Raw 264.7 macrophage cells were incubated (as described above) in the absence or presence of LPS and treated without or with the SPS (Porphyridium C. SPS), Dexamethasone or a combination thereof for 24 hr. Then, TNFα levels in the spent medium were quantified by ELISA, as explained above. DMSO were used as vehicle. Methods: Hydrocortisone, Mometasone furoate and Porphyridium SPS were tested alone and in combination, according to the methods described hereinabove, in order to assess the effect of these various treatments on TNFα secretion in RAW 264.7 cells. Methods: Dexamethasone alone, SPS obtained from brown algae and green algae alone, and combinations of dexamethasone with the SPS, were tested, as described hereinabove, in order to assess the effect of these various treatments on TNFα secretion in RAW 264.7 cells.
# [2] = system: PGE2 secretion in RAW 264.7 cells; assay: LPS-induced prostaglandin E2 secretion by RAW 264.7 macrophage cells (ELISA); format: cell-based
# Protocol: The potential for synergistic interaction was tested by assaying inflammatory mediator secretion by a macrophage cell line (RAW 264.7), following stimulation with lipopolysaccharide (LPS). The inflammatory mediators assayed were: tumor necrosis factor—alpha (TNF-alpha), interleukin 6 (IL-6) and prostaglandin E2 (PGE2). RAW 264.7 monocyte macrophage cells (approximately 4×10^5/ml) were seeded in 24 well plates containing 800 microliters/well of complete growth medium (DMEM containing 2 mM glutamine, 100 U/ml penicillin and 100 μg/ml streptomycin and 10% fetal bovine serum). The cells were then incubated at 37 degrees Celsius with 5% carbon dioxide for 24 h. At the end of this period, growth medium supplemented with 1 μg/ml lipopolysaccharide (LPS) was added to the cells, together with the test substances (SPS, anti-inflammatory drugs and their combinations) and various controls), and the cells were then incubated for a further 24 hr. period under the same conditions as before. Following this incubation period, the conditioned medium was aspirated from the various test and control wells and centrifuged at 14,000 g for 5 minutes to remove particulate matter. The clear supernatants were then stored at −70 degrees Celsius prior to assaying the inflammatory mediatory content therein. The cytokine/mediator content in the thawed supernatants was assayed using standard ELISA kits for TNFα, IL-6 and PGE2 (BioLegend Inc., San Diego, Calif., USA). […] SPS was also investigated on Prostaglandin E2 (PGE2) secretion, as an independent inflammation marker derived from arachidonic acid metabolism. Raw 264.7 macrophage cells were incubated (as described above) in the absence or presence of LPS and treated without or with the SPS (Porphyridium C. SPS), Indomethacin or a combination thereof for 24 hr. Then, PGE2 levels in the supernatant medium were quantified by ELISA, as explained above. DMSO were used as vehicle. […]
compound,measurement,setting,value
C[C@@H]1C[C@H]2[C@@H]3CCC4=CC(=O)C=C[C@]4(C)[C@@]3(F)[C@@H](O)C[C@]2(C)[C@@]1(O)C(=O)CO [Dexamethasone],inhibition at 1 µM,"[1]; Mus musculus, RAW264.7, Table 2, TNFα, 1.0 μM alone",34%
same,TNFα concentration (ng/ml),"[1]; Table 2, 1.0 μM alone","7,400 ng/ml"
O=C(O)Cc1ccccc1Nc1c(Cl)cccc1Cl [Diclofenac],inhibition at 0.1 µM,"[2]; Mus musculus, RAW264.7, Table 3, PGE2, 0.1 μM alone, LPS 1 μg/ml, 24 hr",7.5%
same,PGE2,"[2]; Table 3, 0.1 μM alone, LPS 1 μg/ml, 24 hr","3,700"
C[C@]12CCC(=O)C=C1CC[C@@H]1[C@@H]2[C@@H](O)C[C@@]2(C)[C@H]1CC[C@]2(O)C(=O)CO [Hydrocortisone],inhibition at 5 µM,"[1]; Mus musculus, RAW264.7, Table 1, TNFα, 5.0 μM alone, read-out: % inhibition (mean; n = 3)",27%
same,TNFα concentration (ng/ml),"[1]; Table 1, 5.0 μM alone","8,200 ng/ml"
C[C@@H]1C[C@H]2[C@@H]3CCC4=CC(=O)C=C[C@]4(C)[C@@]3(Cl)[C@@H](O)C[C@]2(C)[C@@]1(OC(=O)c1ccco1)C(=O)CCl [Mometasone furoate],inhibition at 0.5 µM,"[1]; Mus musculus, RAW264.7, Table 1, TNFα, 0.5 μM alone, read-out: % inhibition (mean; n = 3)",32%
same,TNFα concentration (ng/ml),"[1]; Table 1, 0.5 μM alone","7,600 ng/ml"
"COc1ccc2c(c1)c(CC(=O)O)c(C)n2C(=O)c1ccc(Cl)cc1 [indomethacin, Indomethacin]",effect on LPS-stimulated Prostaglandin E2 secretion (in words),"[2]; Example 3, FIG. 3, used alone","inhibited LPS-stimulated Prostaglandin E2 secretion to a certain degree, although this effect was not statistically significant"
